Key:
hypoxia-lesioned rats = assay: Water maze working memory test, Experiment 3B; type: in vivo, rat; details: hypoxia-lesioned rats; 0.5 mg/kg/day 60 days; ± SEM
Excerpt: The apparatus used consists of a circular water tank 160 cm in diameter filled with water to a depth of 38 cm. The water was made cloudy by the addition of milk powder. A clear Plexiglass 15 cm platform, supported by a movable stand rest on the bottom of the tank was submerged to a depth of 2 cm from the water surface. Normally a swimming rat cannot perceive the location of the platform but it may recall it from a previous experience and training, unless it suffers from some memory impairment. The time taken to locate the platform is measured in seconds and referred to as the latency. During the experiment all orientational cues such as ceiling lights etc. remained unchanged. Longer latencies are observed with rats with some impairment to their memory.
Each rat was given two trails a day for four days, entering the pool from the same point of entry each day. The position of the platform was changed daily to one of four predetermined positions. Each rat was tested twice each day over the four days, referred to as runs 1 and 2 on sessions I-IV. Initially the rat was placed on the platform for 60 seconds. It was then removed and placed at the point of entry and allowed a maximum of 120 seconds to locate the platform (run 1). The second run for that day followed 60 seconds later (run 2). In the second run the rat is expected to find the platform much sooner, having benefitted from its earlier experience. […] The average latency of run 1 in four sessions on four different days was then related to the corresponding parameter of run 2. The smaller the ratio of […], the better the short range learning score.
Table 8. […] The data are the latencies in seconds±SEM that it took a given group to locate a submerged and invisible platform the location of which was shifted from one session to the other. The time interval between sessions was one day, and that between successive runs was 60 seconds. (n=7-8 rats per group)

hypoxic rat [1] = assay: Amphetamine-induced stereotype behavior in hypoxic rat, Experiment 2A; type: in vivo; details: hypoxic group, with respect to hypoxia and amphetamine control
Description: Wistar male rats, 15-19 month-old, were exposed to a single hypoxic episode as described above. […] Rats pretreated for 29 days with daily doses of the test drugs (0.5 mg/kg), received a sub-cutaneous (s.c.) injection of D-amphetamine sulfate at a dose of 0.5 mg/kg. D-amphetamine is known to cause an enhancement of the effects of CNS dopamine by a mechanism involving dopamine release, and blockage of its uptake and its metabolism by MAO. The behavioral manifestation of amphetamine action is a stereotypic pattern of lateral head movements. Counts of lateral head movements were taken over two successive intervals of 1 min each, 45-60 min after the injection of amphetamine and then averaged.

hypoxic rat [2] = assay: α-MpT-induced hypokinesia in hypoxic rat, Experiment 1B; type: in vivo; details: hypoxic rats, 0.3 mg/Kg daily i.p. 21 days; for Locomotor activity after α-MpT treatment, recorded as big movements: Mean ± SEM
Description: (§1) Wistar male rats, 15-19 month-old, were exposed to a single hypoxic episode which is assumed to decrease the level of dopamine in the brain. […] The drugs were administered by gavage, using a special syringe equipped with rounded tip that could be directed into the stomach. The dose was contained in 0.3-0.5 mL of distilled water. The rats were pretreated for 70-80 days with daily doses of the test drugs and received intra-peritoneal (i.p.) α-MpT (α-methyl-p-tyrosine) at a dose of 100 mg/kg in 0.3-0.5 mL saline. Controls received saline. α-MpT is assumed to inhibit the formation of L-Dopa from tyrosine and, consequently the formation of dopamine itself. Lack of central dopamine is expressed as hypokinesia. Following the injection of α-MpT, motor activity was recorded for the duration of 10 hours. Locomotion scores were taken in seven fully-computerized cages (26×25 cm) having a grid of infra-red beams at 4 cm-intervals.
(§2) Crossing of a beam initiated an electric signal which was fed into a computer. The number of crossings over a given period provided a measure of locomotion.
(§3) The records gave two data categories: (a) “small movements” originating in stationary activities such as grooming and scratching and (b) “big movements” originating in ambulation and recorded as the simultaneous crossing of more than two beams. “Total movements” include both categories.
(§4) Counts of motor activity in the presence of α-MpT were related as percent with respect to counts in its absence in the corresponding control group (unlesioned or hypoxia-lesioned). Motor activity counts of drug-treated rats were related to the hypoxia saline-treated as 100%. All behavioral tests were performed 90-120 min. after administration of the last dose of the test compound.
The procedure of Experiment 1A was repeated with the following changes:
(1) Animal: 11-14 month-old rats.
The drugs were given i.p.
(3) Duration of the treatment: 21 days.
(4) Dose of α-MpT: 70 mg/Kg.

hypoxic rat [3] = assay: α-MpT-induced hypokinesia in hypoxic rat, Experiment 1A; type: in vivo; details: for Locomotor activity after α-MpT treatment, recorded as total movements / Locomotor activity after αMpT treatment, recorded as big movements: hypoxic rats, 0.5 mg/kg/day by gavage 70-80 days; for Locomotor activity after αMpT treatment, recorded as big movements: Mean ± SEM
Description: as §1, §2, §3, §4

hypoxic rat [4] = assay: Passive avoidance test in hypoxic rat, Experiment 3A; type: in vivo; details: hypoxic rats
Description: Wistar male rats, 15-19 month-old, were exposed to a single hypoxic episode as described above. […] The passive avoidance test was performed on day 13 after initiation the drug treatment. The apparatus consisted of a lit chamber that can be separated from a dark chamber by a sliding door. At training, a rat is placed in the lit chamber for 30 seconds, then the door is opened. The rat moves to the dark chamber after a short delay—the latency, that is recorded. Upon entry into the dark chamber, the door is shut closed and a 0.3-mA footshock is delivered for 3 seconds by a Grass S-88 stimulator. Retention of the experience is determined after 48 hours by repeating the test and recording the latency to an arbitrary maximum of 300 seconds. Longer latencies are ascribed to retention of memory and improved cognition.

With C#CCN(C)[C@H](C)Cc1ccccc1 [deprenyl] the “latency to locate platform, Session I Run 1” value (hypoxia-lesioned rats) was 42 ± 16 s, the “latency to locate platform, Session I Run 2” value (hypoxia-lesioned rats) was 40 ± 17 s and the “latency to locate platform, Session II Run 1” value (hypoxia-lesioned rats) was 42 ± 18 s. The “latency to locate platform, Session II Run 2” value (hypoxia-lesioned rats) was 35 ± 16 s, the “latency to locate platform, Session III Run 1” value (hypoxia-lesioned rats) was 32 ± 15 s and the “latency to locate platform, Session III Run 2” value (hypoxia-lesioned rats) was 8 ± 2 s. For the same compound, the “latency to locate platform, Session IV Run 1” value (hypoxia-lesioned rats) was 19 ± 6 s, the “latency to locate platform, Session IV Run 2” value (hypoxia-lesioned rats) was 12 ± 4 s and the “potentiation of stereotypic behavior induced by amphetamine, in words” value (hypoxic rat [1]) was “did not potentiate”. For the same compound, the “Locomotor activity after α-MpT treatment, recorded as total movements” value (from here on “Locomotor activity … as total movements”) (hypoxic rat [2]; hour 1 after α-MpT 70 mg/Kg) was 68 ± 9%, the “Locomotor activity after α-MpT treatment, recorded as big movements” value (hypoxic rat [2]; hour 1 after α-MpT 70 mg/Kg) was 70 ± 10% and the “Locomotor activity … as total movements” value (hypoxic rat [2]; hour 2 after α-MpT 70 mg/Kg) was 95 ± 11%. The “Locomotor activity after α-MpT treatment, recorded as big movements” value (hypoxic rat [2]; hour 2 after α-MpT 70 mg/Kg) was 91 ± 19%, the “Locomotor activity … as total movements” value (hypoxic rat [2]; hour 3 after α-MpT 70 mg/Kg) was 126 ± 22% and the “Locomotor activity after α-MpT treatment, recorded as big movements” value (hypoxic rat [2]; hour 3 after α-MpT 70 mg/Kg) was 85 ± 19%. For the same compound, the “Locomotor activity … as total movements” value (hypoxic rat [2]; hour 4 after α-MpT 70 mg/Kg) was 118 ± 20%, the “Locomotor activity after α-MpT treatment, recorded as big movements” value (hypoxic rat [2]; hour 4 after α-MpT 70 mg/Kg) was 88 ± 23% and the “Locomotor activity … as total movements” value (hypoxic rat [2]; hour 5 after α-MpT 70 mg/Kg) was 83 ± 24%. The “Locomotor activity after α-MpT treatment, recorded as big movements” value (hypoxic rat [2]; hour 5 after α-MpT 70 mg/Kg) was 87 ± 11%, the “Locomotor activity … as total movements” value (hypoxic rat [2]; hour 6 after α-MpT 70 mg/Kg) was 78 ± 9% and the “Locomotor activity after α-MpT treatment, recorded as big movements” value (hypoxic rat [2]; hour 6 after α-MpT 70 mg/Kg) was 67 ± 8%. For the same compound, the “Locomotor activity … as total movements” value (hypoxic rat [2]; hour 7 after α-MpT 70 mg/Kg) was 56 ± 7%, the “Locomotor activity after α-MpT treatment, recorded as big movements” value (hypoxic rat [2]; hour 7 after α-MpT 70 mg/Kg) was 62 ± 9% and the “Locomotor activity … as total movements” value (hypoxic rat [2]; hour 8 after α-MpT 70 mg/Kg) was 185 ± 13%. The “Locomotor activity after α-MpT treatment, recorded as big movements” value (hypoxic rat [2]; hour 8 after α-MpT 70 mg/Kg) was 70 ± 9%, the “Locomotor activity … as total movements” value (hypoxic rat [2]; hour 9 after α-MpT 70 mg/Kg) was 111 ± 12% and the “Locomotor activity after α-MpT treatment, recorded as big movements” value (hypoxic rat [2]; hour 9 after α-MpT 70 mg/Kg) was 132 ± 24%. The “Locomotor activity … as total movements” value (hypoxic rat [2]; hour 10 after α-MpT 70 mg/Kg) was 61 ± 12%, the “Locomotor activity after α-MpT treatment, recorded as big movements” value (hypoxic rat [2]; hour 10 after α-MpT 70 mg/Kg) was 54 ± 13% and the “Locomotor activity … as total movements” value (hypoxic rat [3]; hour 1 after α-MpT) was 88 ± 23%. The “Locomotor activity after αMpT treatment, recorded as big movements” value (“Locomotor activity after αMpT treatment” below) (hypoxic rat [3]; hour 1 after α-MpT) was 61 ± 15%, the “Locomotor activity … as total movements” value (hypoxic rat [3]; hour 2 after α-MpT) was 131 ± 30% and the “Locomotor activity after αMpT treatment” value (hypoxic rat [3]; hour 2 after α-MpT) was 103 ± 22%. For the same compound, the “Locomotor activity … as total movements” value (hypoxic rat [3]; hour 3 after α-MpT) was 141 ± 26%, the “Locomotor activity after αMpT treatment” value (hypoxic rat [3]; hour 3 after α-MpT) was 184 ± 39% and the “Locomotor activity … as total movements” value (hypoxic rat [3]; hour 4 after α-MpT) was 191 ± 45%. The “Locomotor activity after αMpT treatment” value (hypoxic rat [3]; hour 4 after α-MpT) was 85 ± 34%, the “Locomotor activity … as total movements” value (hypoxic rat [3]; hour 5 after α-MpT) was 229 ± 40% and the “Locomotor activity after αMpT treatment” value (hypoxic rat [3]; hour 5 after α-MpT) was 171 ± 61%. The “Locomotor activity after αMpT treatment” value (hypoxic rat [3]; hour 6 after α-MpT) was 65 ± 17%, the “Locomotor activity … as total movements” value (hypoxic rat [3]; hour 7 after α-MpT) was 204 ± 7% and the “Locomotor activity after αMpT treatment” value (hypoxic rat [3]; hour 7 after α-MpT) was 96 ± 29%. The “Locomotor activity … as total movements” value (hypoxic rat [3]; hour 8 after α-MpT) was 131 ± 23%, the “Locomotor activity after αMpT treatment” value (hypoxic rat [3]; hour 8 after α-MpT) was 91 ± 40% and the “Locomotor activity … as total movements” value (hypoxic rat [3]; hour 9 after α-MpT) was 137 ± 21%. For the same compound, the “Locomotor activity after αMpT treatment” value (hypoxic rat [3]; hour 9 after α-MpT) was 84 ± 23%, the “Locomotor activity … as total movements” value (hypoxic rat [3]; hour 10 after α-MpT) was 116 ± 22% and the “Locomotor activity after αMpT treatment” value (hypoxic rat [3]; hour 10 after α-MpT) was 29 ± 10%. The “effect on hypokinetic syndrome, big movements, in words” value (hypoxic rat [3]; hypoxia group, ten hour observation) was “less effective”, the “level of activity (total movements) versus corresponding control group, in words” value (hypoxic rat [3]; hypoxic rats pretreated) was “much higher” and the “passive avoidance performance, in words” value (hypoxic rat [4]) was “showed no improvement”.
